Laboratory results taken from ChEMBL document CHEMBL5543142, “Discovery of YFJ-36: Design, Synthesis, and Antibacterial Activities of Catechol-Conjugated β-Lactams against Gram-Negative Bacteria” (J Med Chem, 2024).
pIC50: −log10 of the molar value.

Key:
[1] = test system: Escherichia coli; assay: Antibacterial activity against ESBL-producing multidrug-resistant Escherichia coli clinical isolate 14-1 assessed as inhibition of bacterial growth incubated for 18 to 20 hrs by two fold serial dilution assay; type: functional; conditions: time 18-20 hrs
[2] = test system: Acinetobacter baumannii; assay: Antibacterial activity against OXA-23 producing multidrug-resistant Acinetobacter baumannii clinical isolate 17-2 assessed as inhibition of bacterial growth incubated for 18 to 20 hrs by two fold serial dilution assay; type: functional; conditions: time 18-20 hrs
[3] = test system: Escherichia coli; assay: Antibacterial activity against ESBL-producing multidrug-resistant Escherichia coli clinical isolate 14-4 assessed as inhibition of bacterial growth incubated for 18 to 20 hrs by two fold serial dilution assay; type: functional; conditions: time 18-20 hrs
[4] = test system: Acinetobacter baumannii; assay: Antibacterial activity against OXA-23 producing multidrug-resistant Acinetobacter baumannii clinical isolate 17-8 assessed as inhibition of bacterial growth incubated for 18 to 20 hrs by two fold serial dilution assay; type: functional; conditions: time 18-20 hrs
[5] = test system: Acinetobacter baumannii; assay: Antibacterial activity against OXA-23 producing multidrug-resistant Acinetobacter baumannii clinical isolate 17-5 assessed as inhibition of bacterial growth incubated for 18 to 20 hrs by two fold serial dilution assay; type: functional; conditions: time 18-20 hrs
[6] = test system: Klebsiella pneumoniae; assay: Antibacterial activity against KPC-2 producing multidrug-resistant Klebsiella pneumoniae clinical isolate 15-2 assessed as inhibition of bacterial growth incubated for 18 to 20 hrs by two fold serial dilution assay; type: functional; conditions: time 18-20 hrs
[7] = test system: Acinetobacter baumannii; assay: Antibacterial activity against OXA-23 producing multidrug-resistant Acinetobacter baumannii clinical isolate 17-7 assessed as inhibition of bacterial growth incubated for 18 to 20 hrs by two fold serial dilution assay; type: functional; conditions: time 18-20 hrs
[8] = test system: Klebsiella pneumoniae; assay: Antibacterial activity against Klebsiella pneumoniae ATCC BAA-1898 assessed as inhibition of bacterial growth incubated for 18 to 20 hrs in presence of iron-depleted CAMHB medium by two fold serial dilution assay; type: functional; conditions: time 18-20 hrs
[9] = test system: Pseudomonas aeruginosa; assay: Antibacterial activity against IMP-4 producing multidrug-resistant Pseudomonas aeruginosa clinical isolate 19-1 assessed as inhibition of bacterial growth incubated for 18 to 20 hrs by two fold serial dilution assay; type: functional; conditions: time 18-20 hrs
[10] = test system: Klebsiella pneumoniae; assay: Antibacterial activity against KPC-2 producing multidrug-resistant Klebsiella pneumoniae clinical isolate 15-3 assessed as inhibition of bacterial growth incubated for 18 to 20 hrs by two fold serial dilution assay; type: functional; conditions: time 18-20 hrs
[11] = test system: Klebsiella pneumoniae; assay: Antibacterial activity against Klebsiella pneumoniae ATCC BAA-1898 assessed as inhibition of bacterial growth incubated for 18 to 20 hrs in presence of CAMHB medium by two fold serial dilution assay; type: functional; conditions: time 18-20 hrs
[12] = test system: Escherichia coli; assay: Antibacterial activity against Escherichia coli NCTC-13353 assessed as inhibition of bacterial growth incubated for 18 to 20 hrs in presence of iron-depleted CAMHB medium by two fold serial dilution assay; type: functional; conditions: time 18-20 hrs
[13] = test system: Pseudomonas aeruginosa; assay: Antibacterial activity against IMP-4 producing multidrug-resistant Pseudomonas aeruginosa clinical isolate 19-17 assessed as inhibition of bacterial growth incubated for 18 to 20 hrs by two fold serial dilution assay; type: functional; conditions: time 18-20 hrs
[14] = test system: Escherichia coli; assay: Antibacterial activity against Escherichia coli NCTC-13353 assessed as inhibition of bacterial growth incubated for 18 to 20 hrs in presence of CAMHB medium by two fold serial dilution assay; type: functional; conditions: time 18-20 hrs
[15] = test system: Klebsiella pneumoniae; assay: Antibacterial activity against KPC-2 producing multidrug-resistant Klebsiella pneumoniae clinical isolate 15-1 assessed as inhibition of bacterial growth incubated for 18 to 20 hrs by two fold serial dilution assay; type: functional; conditions: time 18-20 hrs
[16] = test system: Klebsiella pneumoniae; assay: Antibacterial activity against KPC-2 producing multidrug-resistant Klebsiella pneumoniae clinical isolate 15-5 assessed as inhibition of bacterial growth incubated for 18 to 20 hrs by two fold serial dilution assay; type: functional; conditions: time 18-20 hrs
[17] = test system: Pseudomonas aeruginosa; assay: Antibacterial activity against IMP-4 producing multidrug-resistant Pseudomonas aeruginosa clinical isolate 17-13 assessed as inhibition of bacterial growth incubated for 18 to 20 hrs by two fold serial dilution assay; type: functional; conditions: time 18-20 hrs
[18] = test system: Escherichia coli; assay: Antibacterial activity against ESBL-producing multidrug-resistant Escherichia coli clinical isolate 14-2 assessed as inhibition of bacterial growth incubated for 18 to 20 hrs by two fold serial dilution assay; type: functional; conditions: time 18-20 hrs
[19] = test system: Acinetobacter baumannii; assay: Antibacterial activity against OXA-23 producing multidrug-resistant Acinetobacter baumannii clinical isolate 17-6 assessed as inhibition of bacterial growth incubated for 18 to 20 hrs by two fold serial dilution assay; type: functional; conditions: time 18-20 hrs
[20] = target: Voltage-gated inwardly rectifying potassium channel KCNH2 (Homo sapiens, UniProt Q12809); assay: Inhibition of hERG by whole cell Qpatch assay; type: toxicity
[21] = test system: Escherichia coli; assay: Antibacterial activity against Escherichia coli ATCC35218 assessed as inhibition of bacterial growth incubated for 18 to 20 hrs by two fold serial dilution assay; type: functional; conditions: time 18-20 hrs
[22] = test system: Escherichia coli; assay: Antibacterial activity against Escherichia coli ATCC-35218 assessed as inhibition of bacterial growth incubated for 18 to 20 hrs in presence of CAMHB medium by two fold serial dilution assay; type: functional; conditions: time 18-20 hrs
[23] = test system: Pseudomonas aeruginosa; assay: Antibacterial activity against IMP-4 producing multidrug-resistant Pseudomonas aeruginosa clinical isolate 17-1 assessed as inhibition of bacterial growth incubated for 18 to 20 hrs by two fold serial dilution assay; type: functional; conditions: time 18-20 hrs
[24] = test system: Escherichia coli; assay: Antibacterial activity against Escherichia coli ATCC-35218 assessed as inhibition of bacterial growth incubated for 18 to 20 hrs in presence of iron-depleted CAMHB medium by two fold serial dilution assay; type: functional; conditions: time 18-20 hrs
[25] = target: hERG (KCNH2) (Homo sapiens, UniProt Q12809); assay: Inhibition of hERG at 40 uM by whole cell Qpatch assay relative to control; type: toxicity
[26] = test system: Pseudomonas aeruginosa; assay: Antibacterial activity against IMP-4 producing multidrug-resistant Pseudomonas aeruginosa clinical isolate 19-5 assessed as inhibition of bacterial growth incubated for 18 to 20 hrs by two fold serial dilution assay; type: functional; conditions: time 18-20 hrs
[27] = test system: Acinetobacter baumannii; assay: Antibacterial activity against OXA-23 producing multidrug-resistant Acinetobacter baumannii clinical isolate 17-3 assessed as inhibition of bacterial growth incubated for 18 to 20 hrs by two fold serial dilution assay; type: functional; conditions: time 18-20 hrs
[28] = Plasma protein binding in mouse incubated for 35 mins by LC-MS/MS analysis; type: ADME, cell-free; conditions: read-out: PPB (converted)
[29] = Clearance in ICR mouse at 20 mg/kg,iv administration measured upto 6 hrs by LC-MS/MS analysis; type: ADME, organism-based; conditions: in vivo
[30] = Volume of distribution at steady state in ICR mouse at 20 mg/kg,iv administration measured upto 6 hrs by LC-MS/MS analysis; type: ADME, organism-based; conditions: in vivo, read-out: Vdss
[31] = MRT in ICR mouse at 20 mg/kg,iv administration measured upto 6 hrs by LC-MS/MS analysis; type: ADME, organism-based; conditions: in vivo
[32] = Half life in ICR mouse at 20 mg/kg,iv administration measured upto 6 hrs by LC-MS/MS analysis; type: ADME, organism-based; conditions: in vivo
[33] = AUC (0 to infinity) in ICR mouse at 20 mg/kg,iv administration measured upto 6 hrs by LC-MS/MS analysis; type: ADME, organism-based; conditions: in vivo

Chain of hERG (KCNH2) (Q12809 whole entry): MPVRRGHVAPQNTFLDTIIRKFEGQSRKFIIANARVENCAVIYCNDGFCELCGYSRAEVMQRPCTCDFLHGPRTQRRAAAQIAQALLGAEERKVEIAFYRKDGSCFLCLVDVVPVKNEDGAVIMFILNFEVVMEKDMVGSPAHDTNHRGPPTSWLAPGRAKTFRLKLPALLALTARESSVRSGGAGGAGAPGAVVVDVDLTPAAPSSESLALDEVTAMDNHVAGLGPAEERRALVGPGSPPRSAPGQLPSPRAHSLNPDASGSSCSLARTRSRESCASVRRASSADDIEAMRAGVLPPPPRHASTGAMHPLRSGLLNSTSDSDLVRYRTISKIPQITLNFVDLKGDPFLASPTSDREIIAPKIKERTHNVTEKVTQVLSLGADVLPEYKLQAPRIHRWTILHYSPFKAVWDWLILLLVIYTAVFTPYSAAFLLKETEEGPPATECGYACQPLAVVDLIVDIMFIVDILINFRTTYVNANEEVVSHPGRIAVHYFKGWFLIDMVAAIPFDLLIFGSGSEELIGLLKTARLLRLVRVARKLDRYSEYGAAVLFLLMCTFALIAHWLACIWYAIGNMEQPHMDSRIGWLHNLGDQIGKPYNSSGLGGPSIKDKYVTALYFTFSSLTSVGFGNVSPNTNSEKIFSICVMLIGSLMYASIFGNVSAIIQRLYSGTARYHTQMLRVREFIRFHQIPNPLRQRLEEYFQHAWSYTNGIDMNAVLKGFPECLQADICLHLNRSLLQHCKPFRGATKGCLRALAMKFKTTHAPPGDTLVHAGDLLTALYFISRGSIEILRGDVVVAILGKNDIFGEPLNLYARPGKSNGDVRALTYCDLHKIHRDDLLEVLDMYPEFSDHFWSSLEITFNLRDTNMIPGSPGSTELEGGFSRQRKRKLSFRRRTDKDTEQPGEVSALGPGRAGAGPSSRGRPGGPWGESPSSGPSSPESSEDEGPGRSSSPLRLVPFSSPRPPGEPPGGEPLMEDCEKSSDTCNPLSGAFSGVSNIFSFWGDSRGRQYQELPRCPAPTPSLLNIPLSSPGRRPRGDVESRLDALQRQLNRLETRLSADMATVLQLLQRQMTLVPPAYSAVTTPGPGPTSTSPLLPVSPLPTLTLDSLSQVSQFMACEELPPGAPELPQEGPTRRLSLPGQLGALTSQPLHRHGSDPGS
Chain of Voltage-gated inwardly rectifying potassium channel KCNH2 (Q12809 whole entry): as above

Row | Structure (SMILES) | MIC [1] [µg/mL] | MIC [2] [µg/mL] | MIC [3] [µg/mL] | MIC [4] [µg/mL] | MIC [5] [µg/mL] | MIC [6] [µg/mL] | MIC [7] [µg/mL] | MIC [8] [µg/mL] | MIC [9] [µg/mL] | MIC [10] [µg/mL] | MIC [11] [µg/mL] | MIC [12] [µg/mL] | MIC [13] [µg/mL] | MIC [14] [µg/mL] | MIC [15] [µg/mL] | MIC [16] [µg/mL] | MIC [17] [µg/mL] | MIC [18] [µg/mL] | MIC [19] [µg/mL] | pIC50 [20] | other results
1 | Nc1nc(/C(=N/O[C@H](C(=O)O)C2CCC(F)(F)CC2)C(=O)N[C@@H]2C(=O)N3C(C(=O)O)=C(CSCCNC(=O)c4ccc(O)c(O)c4Cl)CS[C@H]23)cs1.O=C(O)C(F)(F)F | 0.25 | 0.5 | 0.125 | 1 | 0.25 | 1 | 0.5 | 2 | 8 | 0.25 | 8 | 1 | 0.25 | 1 | 0.25 | 1 | 0.125 | 1 | 0.5 | < 4.40 | MIC [21]: 0.125 µg/mL; MIC [22]: 2 µg/mL; MIC [23]: 64 µg/mL; MIC [24]: 0.5 µg/mL; inhibition at 40 µM [25]: 23.8%; MIC [26]: 2 µg/mL; MIC [27]: 0.5 µg/mL
2 | C[C@@](O/N=C(\C(=O)N[C@@H]1C(=O)N2C(C(=O)O)=C(CSCCNC(=O)c3ccc(O)c(O)c3Cl)CS[C@H]12)c1nc(N)sc1Cl)(C(=O)O)C(F)(F)F.O=C(O)C(F)(F)F | 0.06 | 0.06 | ≤ 0.03 | 0.125 | 0.125 | 0.5 | 0.5 | 4 | 1 | 0.5 | 16 | 0.25 | 0.06 | 0.5 | 0.25 | 0.125 | 0.125 | 0.5 | 0.5 | < 4.40 | fraction unbound at 35 min [28]: 0.066; clearance [29]: 397 mL/min/kg; Vd [30]: 7.74 L/kg; MRT [31]: 18 min; half-life [32]: 18 min; MIC [21]: 0.06 µg/mL; MIC [22]: 0.5 µg/mL; MIC [23]: 8 µg/mL; MIC [24]: ≤ 0.03 µg/mL; inhibition at 40 µM [25]: 40.5%; MIC [26]: 0.25 µg/mL; AUC(0-inf) [33]: 968 ng·h/mL; MIC [27]: 0.5 µg/mL
